In ChEMBL document CHEMBL1143697, “Lemnalosides A-D, decalin-type bicyclic diterpene glycosides from the marine soft coral Lemnalia sp” (2007):
Activity calls are given as the source filed them. No cut-off for these calls is given here.

Legend:
[1] = tested on: Streptomyces; experiment: microbe, parasite or virus in culture; assay type: functional; conditions: 85E, read-out: IZ
Description: Growth inhibition of Streptomyces 85E at 20 ug/disk by hyphae formation inhibition assay

[2] = tested on: Streptomyces; experiment: microbe, parasite or virus in culture; conditions: 85E, read-out: IZ
Description: Growth inhibition of Streptomyces 85E assessed as induction of bald phenotype effect at 5 ug/disk by hyphae formation inhibition assay

[3] = tested on: Streptomyces; experiment: Growth inhibition of Streptomyces 85E by hyphae formation inhibition assay; assay type: functional, organism-based
[4] = tested on: Streptomyces; experiment: Growth inhibition of Streptomyces 85E at 10 ug/disk by hyphae formation inhibition assay; assay type: functional, organism-based
[5] = tested on: Streptomyces; experiment: Growth inhibition of Streptomyces 85E at 2.5 ug/disk by hyphae formation inhibition assay; assay type: functional, organism-based

| Structure (SMILES) | zone of inhibition at 20 µg/disc [1] [mm] | Activity [4] | other results |
| --- | --- | --- | --- |
| N#CC(=C(/N)Sc1ccccc1N)/C(C#N)=C(\N)Sc1ccccc1N | 15 | – | zone of inhibition at 5 µg/disc [2]: 15 mm |
| C=C(C)C(CC[C@@H](C)[C@@H]1CC[C@](C)(O[C@@H]2O[C@H](COC(C)=O)[C@H](O)[C@H](O)[C@H]2O)[C@H]2CCC(C)=C[C@@H]12)OO (stereo not given in full) | – | – | Activity [3]: inactive |
| CC1=C[C@H]2[C@H]([C@H](C)CCC[C@@H](C)C3OC[C@H]4O[C@@H](O3)[C@H](O)[C@@H](O)[C@@H]4O)CC=C(C)[C@H]2CC1 (stereo not given in full) [LEMNABOURSIDE] | 10 | inactive | – |
| CC(=O)OC[C@H]1O[C@@H](O[C@@]2(C)CC[C@@H]([C@H](C)CCC=C(C)C)[C@@H]3C=C(C)CC[C@@H]32)[C@H](O)[C@@H](O)[C@H]1O [LEMNALOSIDE A] | 11 | inactive | – |
| CC(=O)O[C@H]1[C@@H](O)[C@@H](CO)O[C@@H](O[C@@]2(C)CC[C@@H]([C@H](C)CCC=C(C)C)[C@@H]3C=C(C)CC[C@@H]32)[C@@H]1O [LEMNALOSIDE B] | 18 | – | Activity [5]: Active |
| CO[C@@]12[C@H](COC(N)=O)C3=C(C(=O)C(C)=C(N)C3=O)N1C[C@@H]1N[C@@H]12 [MITOMYCIN] | 30 | – | – |
